From ChEMBL document CHEMBL5678818, “Discovery of potent SOS1 inhibitors that block RAS activation via disruption of the RAS-SOS1 interaction” (Proc Natl Acad Sci U S A, 2019)

Columns and labels:
[1] = target: Tyrosine-protein kinase BTK (Homo sapiens) (UniProt Q06187); experiment: Inhibition of BTK (unknown origin) assessed as residual activity at 1000 nM by KINOMEscan analysis relative to control
[2] = tested on: Serine/threonine-protein kinase B-raf (Homo sapiens), P15056 [V600E]; experiment: Inhibition of BRAF V600E mutant (unknown origin) assessed as residual activity at 1000 nM by KINOMEscan analysis relative to control
Serine/threonine-protein kinase B-raf (Homo sapiens), P15056 [V600E], sequence (P15056 whole entry V600E): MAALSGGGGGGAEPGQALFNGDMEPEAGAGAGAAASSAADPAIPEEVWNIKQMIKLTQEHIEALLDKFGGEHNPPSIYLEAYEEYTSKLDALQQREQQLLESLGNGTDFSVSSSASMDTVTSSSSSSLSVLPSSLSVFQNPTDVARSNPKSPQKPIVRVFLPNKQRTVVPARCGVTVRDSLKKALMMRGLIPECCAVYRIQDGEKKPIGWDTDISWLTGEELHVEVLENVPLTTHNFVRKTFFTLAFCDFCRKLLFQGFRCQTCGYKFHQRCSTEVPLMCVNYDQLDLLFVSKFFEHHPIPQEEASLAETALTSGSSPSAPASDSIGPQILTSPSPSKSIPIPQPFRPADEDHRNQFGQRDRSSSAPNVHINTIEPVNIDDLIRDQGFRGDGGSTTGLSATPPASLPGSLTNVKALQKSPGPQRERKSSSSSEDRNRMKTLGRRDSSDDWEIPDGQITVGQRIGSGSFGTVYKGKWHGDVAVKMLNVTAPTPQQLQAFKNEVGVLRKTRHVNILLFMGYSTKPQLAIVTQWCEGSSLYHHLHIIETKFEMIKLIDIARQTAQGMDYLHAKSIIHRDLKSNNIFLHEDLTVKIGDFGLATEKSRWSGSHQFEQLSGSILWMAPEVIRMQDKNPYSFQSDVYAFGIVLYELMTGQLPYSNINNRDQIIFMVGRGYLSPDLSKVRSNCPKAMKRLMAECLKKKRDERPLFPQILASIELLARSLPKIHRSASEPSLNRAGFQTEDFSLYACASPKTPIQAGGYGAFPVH

[3] = target: T1, Inhibitor of nuclear factor kappa-B kinase subunit alpha (Homo sapiens) (UniProt O15111); experiment: Inhibition of IKK-alpha (unknown origin) assessed as residual activity at 1000 nM by KINOMEscan analysis relative to control
T1 sequence (whole entry): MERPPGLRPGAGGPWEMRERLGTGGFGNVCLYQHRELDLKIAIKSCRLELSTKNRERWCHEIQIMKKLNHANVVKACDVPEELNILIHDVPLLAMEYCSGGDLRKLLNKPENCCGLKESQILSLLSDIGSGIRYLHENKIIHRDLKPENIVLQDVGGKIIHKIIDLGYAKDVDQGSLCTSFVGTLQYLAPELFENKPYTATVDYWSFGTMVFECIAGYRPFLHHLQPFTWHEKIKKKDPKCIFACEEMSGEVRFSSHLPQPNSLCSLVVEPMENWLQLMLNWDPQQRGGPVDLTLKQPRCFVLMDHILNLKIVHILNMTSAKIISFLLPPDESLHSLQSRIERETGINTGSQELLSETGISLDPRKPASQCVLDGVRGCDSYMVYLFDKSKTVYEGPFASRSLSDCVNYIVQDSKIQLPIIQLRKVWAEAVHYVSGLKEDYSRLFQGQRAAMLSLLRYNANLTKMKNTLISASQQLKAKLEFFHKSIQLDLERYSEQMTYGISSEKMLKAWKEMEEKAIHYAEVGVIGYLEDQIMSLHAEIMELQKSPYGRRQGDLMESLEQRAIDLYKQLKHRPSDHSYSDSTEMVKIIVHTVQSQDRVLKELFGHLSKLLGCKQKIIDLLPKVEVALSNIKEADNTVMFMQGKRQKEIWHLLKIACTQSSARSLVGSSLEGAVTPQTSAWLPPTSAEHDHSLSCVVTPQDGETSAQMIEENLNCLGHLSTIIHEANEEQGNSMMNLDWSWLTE

[4] = target: Cyclin-dependent kinase 2 (Homo sapiens) (UniProt P24941); experiment: Inhibition of CDK2 (unknown origin) assessed as residual activity at 1000 nM by KINOMEscan analysis relative to control
[5] = target: Protein kinase C delta type (Homo sapiens) (UniProt Q05655); experiment: Inhibition of PRKCD (unknown origin) assessed as residual activity at 1000 nM by KINOMEscan analysis relative to control
Protein kinase C delta type (Homo sapiens), sequence (Q05655 whole entry, looked up): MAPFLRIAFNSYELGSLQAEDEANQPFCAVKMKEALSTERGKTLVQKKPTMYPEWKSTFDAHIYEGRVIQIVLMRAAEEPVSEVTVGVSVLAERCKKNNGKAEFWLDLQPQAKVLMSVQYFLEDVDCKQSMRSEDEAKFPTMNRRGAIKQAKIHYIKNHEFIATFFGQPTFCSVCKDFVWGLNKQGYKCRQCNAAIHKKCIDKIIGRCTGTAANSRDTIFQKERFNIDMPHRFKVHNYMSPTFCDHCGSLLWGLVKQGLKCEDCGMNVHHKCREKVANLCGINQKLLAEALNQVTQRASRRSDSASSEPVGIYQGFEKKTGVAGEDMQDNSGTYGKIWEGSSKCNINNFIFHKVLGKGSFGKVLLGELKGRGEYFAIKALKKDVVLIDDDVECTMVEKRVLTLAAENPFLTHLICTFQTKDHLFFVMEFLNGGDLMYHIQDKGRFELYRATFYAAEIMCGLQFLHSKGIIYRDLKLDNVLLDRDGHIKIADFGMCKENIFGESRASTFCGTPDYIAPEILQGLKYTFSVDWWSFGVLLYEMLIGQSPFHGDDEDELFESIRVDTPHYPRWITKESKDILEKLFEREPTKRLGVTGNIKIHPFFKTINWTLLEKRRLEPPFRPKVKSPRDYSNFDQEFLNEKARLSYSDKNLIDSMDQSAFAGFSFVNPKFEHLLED

[6] = target: T2, Mitogen-activated protein kinase kinase kinase 3 (Homo sapiens) (UniProt Q99759); experiment: Inhibition of MAP3K3 (unknown origin) assessed as residual activity at 1000 nM by KINOMEscan analysis relative to control
T2 sequence (whole entry): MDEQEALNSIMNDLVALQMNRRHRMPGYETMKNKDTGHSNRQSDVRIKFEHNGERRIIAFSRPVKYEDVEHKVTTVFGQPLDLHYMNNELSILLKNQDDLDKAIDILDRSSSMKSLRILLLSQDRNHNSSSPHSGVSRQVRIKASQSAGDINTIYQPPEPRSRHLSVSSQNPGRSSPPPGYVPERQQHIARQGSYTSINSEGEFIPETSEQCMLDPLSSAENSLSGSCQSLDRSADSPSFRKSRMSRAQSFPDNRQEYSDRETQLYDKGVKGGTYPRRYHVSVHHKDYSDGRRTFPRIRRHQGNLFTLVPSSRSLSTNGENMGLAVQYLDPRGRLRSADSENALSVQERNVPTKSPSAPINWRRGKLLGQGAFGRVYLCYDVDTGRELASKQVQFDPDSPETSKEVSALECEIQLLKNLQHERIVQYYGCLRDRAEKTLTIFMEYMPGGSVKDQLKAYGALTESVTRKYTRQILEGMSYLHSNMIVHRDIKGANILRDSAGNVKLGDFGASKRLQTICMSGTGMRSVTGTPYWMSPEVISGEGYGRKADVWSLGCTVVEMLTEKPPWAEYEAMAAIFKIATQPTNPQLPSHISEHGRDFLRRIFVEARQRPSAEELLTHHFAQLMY

[7] = target: T3, Phosphatidylinositol 4,5-bisphosphate 3-kinase catalytic subunit delta isoform (Homo sapiens) (UniProt O00329); experiment: Inhibition of PIK3CD (unknown origin) assessed as residual activity at 1000 nM by KINOMEscan analysis relative to control
T3 sequence (whole entry): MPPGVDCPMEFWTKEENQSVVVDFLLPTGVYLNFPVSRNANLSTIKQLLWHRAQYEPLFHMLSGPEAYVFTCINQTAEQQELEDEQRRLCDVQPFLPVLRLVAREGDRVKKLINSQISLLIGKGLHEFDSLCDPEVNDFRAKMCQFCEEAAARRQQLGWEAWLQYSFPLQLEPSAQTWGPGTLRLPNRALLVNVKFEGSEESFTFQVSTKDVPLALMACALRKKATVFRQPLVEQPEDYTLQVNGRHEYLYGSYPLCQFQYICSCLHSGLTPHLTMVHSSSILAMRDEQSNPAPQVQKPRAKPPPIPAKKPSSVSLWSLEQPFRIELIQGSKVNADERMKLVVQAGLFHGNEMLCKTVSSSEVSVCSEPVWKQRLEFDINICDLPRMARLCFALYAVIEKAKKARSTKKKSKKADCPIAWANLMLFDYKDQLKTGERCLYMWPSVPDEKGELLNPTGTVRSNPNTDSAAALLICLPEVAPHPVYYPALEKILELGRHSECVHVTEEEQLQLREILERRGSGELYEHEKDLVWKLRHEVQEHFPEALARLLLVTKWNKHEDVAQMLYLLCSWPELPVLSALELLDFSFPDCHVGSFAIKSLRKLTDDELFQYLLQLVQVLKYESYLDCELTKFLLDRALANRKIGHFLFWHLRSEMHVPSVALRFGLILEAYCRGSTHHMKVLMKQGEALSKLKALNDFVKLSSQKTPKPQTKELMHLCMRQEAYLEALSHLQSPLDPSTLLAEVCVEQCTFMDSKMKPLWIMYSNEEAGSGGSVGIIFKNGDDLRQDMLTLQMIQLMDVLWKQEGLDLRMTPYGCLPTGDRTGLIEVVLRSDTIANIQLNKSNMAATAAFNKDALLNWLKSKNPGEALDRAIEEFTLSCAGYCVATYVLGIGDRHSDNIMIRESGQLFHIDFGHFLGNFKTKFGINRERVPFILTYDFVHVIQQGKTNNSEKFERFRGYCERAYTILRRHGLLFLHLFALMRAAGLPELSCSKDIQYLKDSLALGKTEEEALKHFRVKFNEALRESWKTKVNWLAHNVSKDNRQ

[8] = target: Serine/threonine-protein kinase SIK2 (Homo sapiens) (UniProt Q9H0K1); experiment: Inhibition of SIK2 (unknown origin) assessed as residual activity at 1000 nM by KINOMEscan analysis relative to control
Serine/threonine-protein kinase SIK2 (Homo sapiens), sequence (Q9H0K1 whole entry, looked up): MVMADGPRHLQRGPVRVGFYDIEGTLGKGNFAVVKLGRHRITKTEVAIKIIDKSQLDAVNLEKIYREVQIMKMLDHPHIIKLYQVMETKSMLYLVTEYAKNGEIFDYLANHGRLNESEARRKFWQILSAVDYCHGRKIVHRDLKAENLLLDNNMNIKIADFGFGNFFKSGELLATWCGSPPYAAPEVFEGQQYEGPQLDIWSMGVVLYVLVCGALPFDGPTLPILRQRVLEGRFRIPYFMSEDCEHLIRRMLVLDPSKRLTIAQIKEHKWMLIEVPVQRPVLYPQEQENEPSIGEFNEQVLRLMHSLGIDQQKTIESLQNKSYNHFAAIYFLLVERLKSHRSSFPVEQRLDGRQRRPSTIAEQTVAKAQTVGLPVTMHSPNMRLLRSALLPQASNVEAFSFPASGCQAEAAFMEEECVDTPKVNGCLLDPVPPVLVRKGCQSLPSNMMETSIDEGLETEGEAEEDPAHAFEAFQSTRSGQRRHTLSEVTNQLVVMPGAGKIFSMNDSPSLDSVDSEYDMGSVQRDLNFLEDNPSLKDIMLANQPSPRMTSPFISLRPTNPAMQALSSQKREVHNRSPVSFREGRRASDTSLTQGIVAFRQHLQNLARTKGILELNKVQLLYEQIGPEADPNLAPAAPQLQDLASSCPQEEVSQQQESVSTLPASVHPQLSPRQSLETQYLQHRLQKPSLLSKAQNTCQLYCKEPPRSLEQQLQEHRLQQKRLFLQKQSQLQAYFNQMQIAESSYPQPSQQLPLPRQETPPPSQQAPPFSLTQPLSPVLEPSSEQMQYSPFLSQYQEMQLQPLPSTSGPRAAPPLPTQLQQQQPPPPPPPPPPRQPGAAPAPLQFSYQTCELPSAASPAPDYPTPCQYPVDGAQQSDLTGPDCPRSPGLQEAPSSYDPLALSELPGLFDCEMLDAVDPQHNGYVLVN

Tyrosine-protein kinase BTK (Homo sapiens), sequence (Q06187 whole entry): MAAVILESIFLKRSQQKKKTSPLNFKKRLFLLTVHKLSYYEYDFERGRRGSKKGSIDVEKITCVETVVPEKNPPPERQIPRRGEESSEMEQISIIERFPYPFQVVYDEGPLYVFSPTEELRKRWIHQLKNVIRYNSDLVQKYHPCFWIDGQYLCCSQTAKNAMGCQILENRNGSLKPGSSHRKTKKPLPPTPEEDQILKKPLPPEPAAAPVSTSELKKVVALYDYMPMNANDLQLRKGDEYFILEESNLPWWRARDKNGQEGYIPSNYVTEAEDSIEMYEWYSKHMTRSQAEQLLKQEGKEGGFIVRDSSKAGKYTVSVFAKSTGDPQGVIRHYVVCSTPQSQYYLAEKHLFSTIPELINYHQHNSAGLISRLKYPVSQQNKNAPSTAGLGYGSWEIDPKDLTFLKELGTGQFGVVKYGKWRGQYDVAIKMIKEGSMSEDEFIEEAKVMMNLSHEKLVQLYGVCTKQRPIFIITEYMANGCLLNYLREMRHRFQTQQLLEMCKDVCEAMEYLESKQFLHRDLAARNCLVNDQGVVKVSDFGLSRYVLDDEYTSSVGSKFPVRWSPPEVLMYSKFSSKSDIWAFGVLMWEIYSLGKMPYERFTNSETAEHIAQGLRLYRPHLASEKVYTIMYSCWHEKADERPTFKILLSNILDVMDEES

Q: Which results are given for `COc1cc2nc(C)nc(N[C@H](C)c3cccc(-c4cn[nH]c4)c3)c2cc1OC`?
A: Activity [1]: 100%; Activity [2]: 65%; Activity [3]: 81%; Activity [4]: 100%; Activity [5]: 59%; Activity [6]: 95%; Activity [7]: 96%; Activity [8]: 89%

Q: `COc1cc2ncnc(N[C@H](C)c3cccc4ccccc34)c2cc1OC` was tested. Which Activity [1] did it give?
A: The Activity was 97%.

Q: What about the Activity [2] of the same compound?
A: Its Activity is 97%.

Q: And the Activity [3]?
A: The Activity was 70%.

Q: And the Activity [4]?
A: The Activity was 100%.

Q: What about the Activity [5] of the same compound?
A: Its Activity is 81%.

Q: And the Activity [6]?
A: The Activity was 100%.

Q: What about the Activity [7] of the same compound?
A: The Activity was 68%.

Q: And the Activity [8]?
A: Its Activity is 100%.
